Patent US11634412B2, “3-phosphoglycerate dehydrogenase inhibitors and uses thereof” (Raze Therapeutics, Inc., priority 2016, dated 2023)
pIC50: −log10 of the molar value.

Biological target: T1, Full length (FL) 3-Phosphoglycerate Dehydrogenase (PHGDH) (Homo sapiens, UniProt O43175)
T1 construct: Full length (FL) 3-Phosphoglycerate Dehydrogenase (PHGDH) Diaphorase coupled assay (500 uM NAD)
T1 sequence (O43175 1-533): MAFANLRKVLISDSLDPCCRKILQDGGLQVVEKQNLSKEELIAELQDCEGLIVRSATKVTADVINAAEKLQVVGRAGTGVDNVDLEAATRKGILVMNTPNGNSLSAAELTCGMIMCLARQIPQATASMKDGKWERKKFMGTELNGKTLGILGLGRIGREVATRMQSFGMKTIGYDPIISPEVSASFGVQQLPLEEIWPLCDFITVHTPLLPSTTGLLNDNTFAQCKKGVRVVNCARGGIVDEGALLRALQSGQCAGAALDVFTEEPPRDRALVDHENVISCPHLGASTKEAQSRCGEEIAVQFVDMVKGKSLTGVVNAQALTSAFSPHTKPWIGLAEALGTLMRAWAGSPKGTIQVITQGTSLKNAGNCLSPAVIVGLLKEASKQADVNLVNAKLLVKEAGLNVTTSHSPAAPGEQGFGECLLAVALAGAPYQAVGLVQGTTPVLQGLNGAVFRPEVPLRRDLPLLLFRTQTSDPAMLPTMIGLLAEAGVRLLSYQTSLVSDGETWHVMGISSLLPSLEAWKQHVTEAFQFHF
Assay: Full length (FL) PHGDH Diaphorase coupled assay (20 uM NAD)
Assay type: biochemical
Conditions: full-length PHGDH 10 nM, 30° C. 60 minutes, resorufin fluorescence
Experimental: PHGDH activity was determined by detecting the NADH produced during the reaction. Diaphorase was used to catalyze the oxidation of NADH with the concomitant reduction of resazurin to the fluorescent product resorufin. Resorufin fluorescence quantitatively reflected the production of NADH by the PHGDH reaction. To drive the forward reaction, two enzymes in the serine synthesis pathway subsequent to PHGDH, Phosphoserine aminotransferase (PSAT1) and phosphoserine phosphatase (PSPH) were also added to the reaction.

SMILES	pIC50
Cn1c(C(=O)N[C@@]2(c3ccc(C(=O)O)cc3)CCOC2)cc2c(Cl)c(Cl)ccc21 (single isomer, unassigned; peak 2) [I-132 or I-133 e147 peak 2]	6.00 to 9.00
CC(=O)NS(=O)(=O)N1CCC(NC(=O)c2cc3c(Cl)c(Cl)ccc3n2C)(c2ccc(C(=O)O)cc2)CC1 [I-144 e11]	6.00 to 9.00
CC(=O)NS(=O)(=O)N1CCC(NC(=O)c2cc3c(Cl)c(Cl)ccc3n2C)(c2cccc(N)c2)CC1 [I-145 e13]	5.00 to 5.30
CC(=O)NS(=O)(=O)N1CC(NC(=O)c2cc3c(Cl)c(Cl)ccc3n2C)(c2ccccc2)C1 [I-148 e9]	5.00 to 5.30

The next lines start with the values.

pIC50	SMILES
5.00 to 5.30	CC(=O)NS(=O)(=O)N1CCC(NC(=O)c2cc3c(Cl)c(Cl)ccc3n2C)(c2cccc(CO)c2)CC1 [I-149 e12]
5.00 to 5.30	CC(=O)Nc1cccc(C2(NC(=O)c3cc4c(Cl)c(Cl)ccc4n3C)CCN(C(C)=O)CC2)c1 [I-150 e5]
5.30 to 6.00	CC(=O)NS(=O)(=O)N1CCC(NC(=O)c2cc3c(Cl)c(Cl)ccc3n2C)(c2cccc(C(=O)O)c2)CC1 [I-151 e10]
5.30 to 6.00	Cn1c(C(=O)NC2(c3ccccc3)CCN(S(=O)(=O)Nc3cnccn3)CC2)cc2c(Cl)c(Cl)ccc21 [I-152 e3]
5.00 to 5.30	CC(=O)Nc1cccc(C2(NC(=O)c3cc4c(Cl)c(Cl)ccc4n3C)CCN(S(=O)(=O)NC(C)=O)CC2)c1 [I-153 e2]
5.00 to 5.30	CC(=O)NS(=O)(=O)N1CCC(NC(=O)c2cc3c(Cl)c(Cl)ccc3n2C)(c2cccc(C#N)c2)CC1 [I-154 e4]
